Laboratory results: patent publication US8865741B2, “Aminoindane compounds and use thereof in treating pain” (Asana Biosciences, LLC, priority 2011, dated 2014)

How the values were obtained:
[1] = tested on: sodium channel in hTRPV1-N1E115 cells; experiment: FLIPR membrane potential assay of sodium channel response in hTRPV1-N1E115 cells, with (47° C.) or without (25° C.) heat activation of hTRPV1; type: cell-based
Outline: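 hTRPV1-N1E115 cells were loaded with membrane potential blue dye, and compound was added. Duplicate plates were either heated to 47 °C for 10 min then held 30 min at ~25 °C, or kept 40 min at room temperature. Activity was attenuation of the FLIPR Tetra signal induced by 100 μM veratridine (final).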

[2] = tested on: Male Sprague Dawley (SD) rats; experiment: In vivo assay of mechanical nociception (rat pinch model, perisciatic injection); conditions: perisciatic
rats [3] = experiment: Sciatic function assay (foot print score, motor function); type: in vivo, rat; conditions: 200 μL of 0.2% with 2% lidocaine
Excerpt: The sciatic function test is a simple observational gait analysis that provides a rudimentary assessment of hind-limb motor function according to a predetermined scoring scale based on a visual inspection of the animals foot prints as it ambulates on a flat surface (the basic principles of this test are provided in Lowdon (Journal of Neuroscience Methods 24(3), 1988, 279-281)). Following the injection of a test substance(s), the animal's hind paws are inked and it is then placed on a flat paper surface and permitted to ambulate freely. The footprint pattern left by the inked footpads on the paper is inspected and assigned a ‘foot print score’ based on a subjective assessment. […] A footprint score of 1-3 reflected that the weight bearing was primarily on the knees, that the ankle and toes were used sparingly, the toes were curled, and or the plantar surface of the paw is uplifted in a concave fashion. A footprint score of 4-6 reflects that the weight bearing is primarily on the knees and angle, with very little weight bearing on the toes. A footprint score of 6-10 reflects that the weight bearing is distributed over the knee, ankle, and toes and that there is an occasional sparing of the knee joints.

rats [4] = experiment: Cutaneous anesthetic activity, cutaneous trunci muscle reflex (CTMR) pin-prick model; type: in vivo, rat; conditions: 100 μL sub-cutaneous injection, 0.2%, with lidocaine 2% vs alone
Protocol: Rats were subjected to several days of acclimatization to the environment and the investigator prior to entering the study. About 24 hours before each experiment, the skin on the back of male rats was shaved using electronic clippers. The anesthetic action of test agents, following subcutaneous injection was determined using a “pin-prick” method as described by Khan (Khan et al., Anesthesiology, January 2002, 96(1): 109-116). Injection volumes were standardized at 100 μL, each injection caused a small wheal to develop—the boundary of which was marked with ink. The cutaneous trunci muscle reflex (CTMR) is a reflex movement of the skin due to twitches of the lateral thoracospinal muscles elicited by noxious stimulation of the dorsal cutaneous area. An 18-guage needle was used as the noxious stimulus; six stimuli were presented to an area of ‘normal’ skin to determine baseline sensitivity and this was then repeated in the area of the wheal. […] Data were represented as % maximal possible effect (MPE) where 100% indicates complete lack of response to each of the six needle presentations in the injected area. The extent of local anesthesia was assessed at regular intervals in order to generate efficacy-duration time plots.

[5] = tested on: sodium current in DRG neurons; conditions: co-applied with 1 μM capsaicin; whole-cell voltage clamp; read-out: in vitro apparent affinity (IC50) for blocking sodium current in DRG neurons; cited from earlier work

| IC50 ([1]; 47° C., class symbols, read-out: hTRPV1-N1E IC50 (μM) 47° C.) | duration of marked motor deficit post injection (rats [3]; unilateral peri-sciatic injection) | time of gradual return of foot print score to normal (rats [3]; remaining hours of assessment after the first 6 hours) | SMILES | hTRPV1-N1E Nav 0.1 mM (% inhibition) 25° C. ([1]; 0.1 mM, 25° C. (no heat activation of hTRPV1)) | Average Time of Analgesia ([2]; test compound 0.2%, lidocaine 2%, total injection 200 μL) | duration of analgesia, combination with lidocaine compared to compound alone (rats [4]) | Average Time of Analgesia ([2]; test compound 0.5%, lidocaine 0%, total injection 100 μL) | Average Time of Analgesia ([2]; test compound 0.5%, lidocaine 0%, total injection 200 μL) | Average Time of Analgesia ([2]; test compound 0.5%, lidocaine 2%, total injection 100 μL) | Average Time of Analgesia ([2]; test compound 0.5%, lidocaine 2%, total injection 200 μL) | IC50 [5] |
| --- | --- | --- | --- | --- | --- | --- | --- | --- | --- | --- | --- |
| 1 to 10 µM | 2 h | ~20 h | Cc1ccccc1N(CC[C@H]1CCCC[N+]1(C)C)C1Cc2ccccc2C1.[Br-] [Example 43, (R)-2-[2-(Indan-2-yl-o-tolyl-amino)-ethyl]-1,1-dimethyl-piperidinium bromide] | 93.9% | 28 h | extended duration of analgesia |  |  |  |  |  |
|  |  |  | CC[N+](CC)(CC)CC(=O)Nc1c(C)cccc1C [QX-314, reference compound] |  |  |  | 2 h | 2 h | 6 h | 9 h | 30 µM |
